{"source": "patent US10329304B2", "about": "“Compounds and methods for inhibition of hedgehog signaling and phosphodiesterase” (Vanderbilt University, priority 2014, dated 2019)", "key": {"Gli2 trafficking": {"test_system": "Gli2 trafficking", "assay": "Gli2 ciliary localization and nuclear fraction western blot in NIH3T3 cells", "format": "cell-based", "settings": "SAG 20 nM; for Gli2 localization in the primary cilium: 5 μM; for SAG-induced nuclear accumulation of full-length Gli2: Egm 10 μM, FSK 30 μM"}, "Ptch1 transcription": {"test_system": "Ptch1 transcription", "assay": "Sufu−/− mouse embryonic fibroblasts qRT-PCR", "format": "cell-based", "settings": "Mus musculus, Fibroblast; read-out: Sufu Null (Ptc) % Inh., 10 μM"}, "BMP signaling (BRE-luc)": {"test_system": "BMP signaling (BRE-luc)", "assay": "BMP4-responsive reporter (BRE-luc) in C2C12BRA cells", "format": "cell-based", "settings": "stimulated with BMP4 ligand"}, "PKA activation": {"test_system": "PKA activation", "assay": "Immunostaining of autophosphorylated PKA catalytic subunit in NIH3T3 cells", "format": "cell-based", "settings": "SAG-stimulated NIH3T3 cells, Egm 5 μM, Rolipram 10 μM", "description": "NIH3T3 cells were plated on Poly-D-Lysine-coated glass coverslips and were cultured at 37° C., 5% CO2 in DMEM medium containing 10% fetal bovine serum until reaching 75% confluency. For one set of experiments, cells were then transfected with VSV-tagged PDE4D3 plasmid (gift from Miles Houslay, University of Glasgow, Scotland, UK) using Fugene6 transfection reagent (Roche, Indianapolis, Ind.) per manufacturer's protocol. Afterward, cell medium was replaced with DMEM/0.5% FBS containing either 5 μM eggmanone or DMSO and incubated overnight at 37° C., 5% CO2. Cells were fixed in 4% PFA at room temperature for 10 minutes prior to permeabilization, blocking, and staining with primary antibodies against Arl13b (gift of Tamary Caspary, Emory University, Atlanta, Ga.) and VSV (AbCam, Cambridge, Mass.). Fluorescent immunocytochemistry was performed using species-specific, secondary antibodies (Jackson Immunoresearch, West Grove, Pa.). For additional immunocytochemistry experiment, cells were treated with 20 nM SAG in the presence or absence of 5 uM Eggmanone. After overnight incubation, cells were washed with PBS, fixed for 10 minutes in 4% PFA, permeabilized 20 minutes at −20C with cold methanol, blocked with PBS/1% BSA, and incubated with primary antibodies to phospho-PKA catalytic domain Thr197 (Cell Signaling, Danvers, Mass.) and then to Arl13b. An additional overnight blocking step using unconjugated rabbit IgG was required between primary antibody incubations since both antibodies were produced in rabbit. Fluorescent conjugated secondary antibodies were used for visualization. Data analysis was performed in part through the use of the VUMC Cell Imaging Shared Resource.\nUsing ImageJ software (National Institutes of Health, developed by W. Rasband), a region of interest was created using the magic wand tool on Arl13b channel and transposed to the Gli2 channel, and integrated density was measured and reported as arbitrary units (a.u.). For phospho-PKA, using ImageJ, a line selection tool was used to select a line projected through the length of the primary cilia and an equal length beyond. The intensity values were potted and the cumulative florescence (area under the curve) was calculated for three cilia, blindly, for each treatment. These values for cilia and pericilia domain were analyzed by a two tailed students t-test. For correlation analysis, correlation coefficient for intensity of gamma-tubulin and phosphor-PKA were calculated and compared among treatments with students t-test."}, "consensus PDE4D sequence": {"target": "consensus PDE4D sequence (Homo sapiens, UniProt Q08499)", "sequence (Q08499 whole entry)": "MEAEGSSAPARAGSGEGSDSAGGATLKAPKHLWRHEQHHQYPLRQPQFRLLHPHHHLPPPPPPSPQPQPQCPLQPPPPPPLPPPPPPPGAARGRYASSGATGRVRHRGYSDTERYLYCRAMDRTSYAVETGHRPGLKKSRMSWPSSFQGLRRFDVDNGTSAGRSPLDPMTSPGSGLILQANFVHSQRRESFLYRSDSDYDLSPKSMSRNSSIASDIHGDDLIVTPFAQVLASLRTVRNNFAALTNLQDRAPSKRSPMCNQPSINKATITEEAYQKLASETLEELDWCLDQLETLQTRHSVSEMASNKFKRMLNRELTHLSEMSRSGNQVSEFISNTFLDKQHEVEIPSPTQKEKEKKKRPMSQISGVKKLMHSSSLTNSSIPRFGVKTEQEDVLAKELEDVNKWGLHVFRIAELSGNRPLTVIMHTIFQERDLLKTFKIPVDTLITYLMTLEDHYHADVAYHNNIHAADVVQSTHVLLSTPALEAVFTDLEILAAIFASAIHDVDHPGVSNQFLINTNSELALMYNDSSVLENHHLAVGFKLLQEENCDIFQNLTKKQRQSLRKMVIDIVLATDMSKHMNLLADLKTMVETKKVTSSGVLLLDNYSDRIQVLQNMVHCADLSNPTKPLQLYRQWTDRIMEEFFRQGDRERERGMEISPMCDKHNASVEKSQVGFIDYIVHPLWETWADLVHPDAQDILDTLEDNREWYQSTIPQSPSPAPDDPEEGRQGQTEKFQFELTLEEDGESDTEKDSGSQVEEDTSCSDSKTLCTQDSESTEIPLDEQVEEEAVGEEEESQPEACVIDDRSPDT", "assay": "PDE4D inhibition (consensus PDE4D sequence)", "format": "biochemical", "source_text": "First, the contribution of PDE4 was revisited as a potential explanation for the observed mechanistic drift."}}, "note": "“Also recorded” adds a separate entry of the source.", "data": [{"smiles": "C=C(C)Cn1c(SCC(=O)c2cccs2)nc2sc3c(c2c1=O)CCCC3", "note": "[EGM, Eggmanone]", "values": [{"measurement": "Gli2 localization in the primary cilium", "setting": "Gli2 trafficking", "value": "significantly increased Gli2 localization in the cilium"}, {"measurement": "Gli2 localization in the primary cilium", "setting": "Gli2 trafficking; listed as Egm", "value": "significantly increased Gli2 localization in the cilia"}, {"measurement": "SAG-induced nuclear accumulation of full-length Gli2", "setting": "Gli2 trafficking", "value": "abrogated"}, {"measurement": "SAG-induced nuclear accumulation of full-length Gli2", "setting": "Gli2 trafficking; listed as Egm", "value": "abrogated"}, {"measurement": "inhibition at 10 µM", "setting": "Ptch1 transcription", "value": 65.6, "unit": "%"}, {"measurement": "BMP4-responsive reporter (BRE-luc) activity", "setting": "BMP signaling (BRE-luc)", "value": "had no significant effects on BMP4-responsive reporter (BRE-luc) activity"}, {"measurement": "PKA activation (phospho-PKA-C staining), spatial distribution", "setting": "PKA activation", "value": "increases local PKA activation at the base of the primary cilia; also recorded: spatially restricted activation of PKA around the centrosome"}, {"measurement": "PKA activation (phospho-PKA-C staining), spatial distribution", "setting": "PKA activation; listed as Egm", "value": "increases local PKA activation at the base of the primary cilia; also recorded: increases local PKA activation at the basal body"}]}, {"smiles": "C=C(C)Cn1c(SCC(=O)c2ccccc2)nc2sc3c(c2c1=O)CCCC3", "note": "[Formula 9g]", "values": [{"measurement": "PDE4D inhibition in words", "setting": "consensus PDE4D sequence", "value": "tracked well with EGM1's IC50:EC50 ratio"}]}, {"smiles": "C=CCn1c(SCC(=O)c2cccs2)nc2sc3c(c2c1=O)CCCC3", "note": "[JEH-3-039-3]", "values": [{"measurement": "inhibition at 10 µM", "setting": "Ptch1 transcription", "value": 38.1, "unit": "%"}]}, {"smiles": "CCCn1c(SCC(=O)c2cccs2)nc2sc3c(c2c1=O)CCCC3", "note": "[Formula 9e]", "values": [{"measurement": "PDE4D inhibition in words", "setting": "consensus PDE4D sequence", "value": "tracked well with EGM1's IC50:EC50 ratio"}]}, {"smiles": "O=C(CSc1nc2sc3c(c2c(=O)n1C1CC1)CCCC3)c1cccs1", "note": "[JEH-3-039-2]", "values": [{"measurement": "inhibition at 10 µM", "setting": "Ptch1 transcription", "value": 80.4, "unit": "%"}]}, {"smiles": "C=C(C)Cn1c(SCC(=O)c2cccs2)nc2sc3c(c2c1=O)CCCC3", "note": "[Eggmanone, 3-(2-methylallyl)-2-((2-oxo-2-(thiophen-2-yl)ethyl)thio)-5,6,7,8-tetrahydrobenzo[4,5]thieno[2,3-d]pyrimidine-4(3H)-one]", "values": [{"measurement": "Gli2 localization in the primary cilium", "setting": "Gli2 trafficking", "value": "significantly more Gli2 accumulated in Eggmanone-treated cilia than in controls"}, {"measurement": "Gli2 localization in the primary cilium", "setting": "Gli2 trafficking; listed as eggmanone", "value": "more Gli2 accumulated in eggmanone-treated cilium than in controls"}, {"measurement": "SAG-induced nuclear accumulation of full-length Gli2", "setting": "Gli2 trafficking", "value": "blunted the nuclear accumulation of the full-length Gli2"}, {"measurement": "SAG-induced nuclear accumulation of full-length Gli2", "setting": "Gli2 trafficking; listed as eggmanone", "value": "blunted the nuclear accumulation of the full-length Gli2"}, {"measurement": "BMP4-responsive reporter (BRE-luc) activity", "setting": "BMP signaling (BRE-luc)", "value": "did not affect BMP-responsive luciferase reporter activity; also recorded: had no significant effects on BMP4-responsive reporter (BRE-luc) activity"}, {"measurement": "BMP4-responsive reporter (BRE-luc) activity", "setting": "BMP signaling (BRE-luc); listed as eggmanone", "value": "did not affect BMP-responsive luciferase reporter activity"}, {"measurement": "PKA activation (phospho-PKA-C staining), spatial distribution", "setting": "PKA activation", "value": "significantly increased the intensity of PKA activation almost exclusively at the basal body"}, {"measurement": "PKA activation (phospho-PKA-C staining), spatial distribution", "setting": "PKA activation; listed as eggmanone", "value": "significantly increased the intensity of PKA activation almost exclusively in the basal body"}]}, {"smiles": "C=C(C)Cn1c(SCC(=O)c2ccccc2)nc2sc3c(c2c1=O)CCCC3", "note": "[JEH-3-045-1]", "values": [{"measurement": "inhibition at 10 µM", "setting": "Ptch1 transcription", "value": 47.6, "unit": "%"}]}]}
